Measurements published in the NIST ThermoML archive (doi:10.1021/acs.jced.9b00209).

Experiments:
[1] = 101.33 kPa, Liquid, Pycnometric method
[2] = molar heat capacity at saturation pressure; settings: Liquid, Vacuum adiabatic calorimetry
[3] = Boiling temperature at pressure P; settings: Liquid, Ebulliometric method (Recirculating still)

CC(C)CCOC(=O)C(C)O (configuration not stated) [isopentyl 2-hydroxypropanoate]
Settings	Boiling temperature at pressure P [°C]	mass density [kg/m3]	molar heat capacity [J/K/mol]
[1], 288.15 K	–	976	–
[1], 293.65 K	–	973.5	–
[1], 298.15 K	–	969.5	–
[1], 303.15 K	–	965	–
[1], 308.15 K	–	960.6	–
[1], 315.65 K	–	954.9	–
[1], 320.15 K	–	950	–
[1], 326.15 K	–	945.3	–
[1], 331.65 K	–	939.8	–
[1], 336.15 K	–	937.8	–
[1], 341.45 K	–	931.1	–
[1], 346.15 K	–	928	–
[1], 350.95 K	–	922.7	–
[1], 355.65 K	–	917	–
[1], 361.65 K	–	913.2	–
[1], 367.15 K	–	908	–
[1], 373.15 K	–	903	–
[1], 378.45 K	–	898.3	–
[1], 383.45 K	–	893	–
[1], 390.65 K	–	887.5	–
[1], 397.15 K	–	883.1	–
[1], 404.35 K	–	876.4	–
[1], 410.85 K	–	869.6	–
[1], 417.05 K	–	864.7	–
[1], 420.45 K	–	861	–
[1], 424.75 K	–	854.7	–
[1], 428.15 K	–	854.2	–
[1], 434.25 K	–	848.9	–
[1], 441.75 K	–	842.2	–
[1], 448.55 K	–	836	–
[1], 453.15 K	–	832	–
[2], 288.15 K	–	–	360.71
[2], 293.65 K	–	–	362.52
[2], 298.15 K	–	–	364.02
[2], 303.55 K	–	–	365.85
[2], 308.95 K	–	–	367.71
[2], 313.65 K	–	–	369.34
[2], 318.45 K	–	–	371.04
[2], 323.65 K	–	–	372.9
[2], 328.25 K	–	–	374.56
[2], 333.85 K	–	–	376.6
[2], 338.75 K	–	–	378.4
[2], 343.05 K	–	–	380
[2], 348.55 K	–	–	382.06
[2], 353.15 K	–	–	383.8
[2], 358.45 K	–	–	385.81
[2], 363.35 K	–	–	387.69
[2], 368.05 K	–	–	389.51
[2], 373.75 K	–	–	391.72
[2], 378.85 K	–	–	393.72
[2], 383.35 K	–	–	395.5
[2], 388.65 K	–	–	397.6
[2], 393.25 K	–	–	399.44
[2], 398.45 K	–	–	401.54
[2], 403.15 K	–	–	403.44
[2], 408.65 K	–	–	405.69
[2], 413.15 K	–	–	407.54
[2], 418.85 K	–	–	409.91
[2], 423.95 K	–	–	412.04
[2], 428.45 K	–	–	413.94
[2], 433.15 K	–	–	415.95
[2], 438.55 K	–	–	418.27
[2], 443.65 K	–	–	420.49
[2], 448.15 K	–	–	422.47
[2], 453.65 K	–	–	424.92
[3], 4.5 kPa	101.44	–	–
[3], 8.6 kPa	118.64	–	–
[3], 13.8 kPa	131.41	–	–
[3], 18.4 kPa	139.2	–	–
[3], 22.8 kPa	146.61	–	–
[3], 27.9 kPa	153.00	–	–
[3], 33.2 kPa	158.40	–	–
[3], 38.6 kPa	163.80	–	–
[3], 42.9 kPa	168.23	–	–
[3], 48.2 kPa	171.66	–	–
[3], 52.3 kPa	174.60	–	–
[3], 57.6 kPa	178.1	–	–
[3], 62.3 kPa	182.00	–	–
[3], 69.2 kPa	186.00	–	–
[3], 72.7 kPa	188.32	–	–
[3], 77 kPa	190.7	–	–
[3], 82 kPa	192.98	–	–
[3], 87.2 kPa	195.31	–	–
[3], 91.4 kPa	197.64	–	–
[3], 95.7 kPa	199.20	–	–
[3], 100.7 kPa	201.00	–	–
[3], 110.3 kPa	205.41	–	–
